Tests used:
Test in all cases: biochemical
Parameters in all cases: species or system HEK293/K-562/placenta mixed human extract; Kinobeads chemoproteomic competition binding, quantified by TMT LC-MS/MS, dose response up to 20 uM
PRKD2 = PRKD2 (Homo sapiens, UniProt Q9BZL6)
TNK1 = TNK1 (Homo sapiens, UniProt Q13470)
TAOK2 = TAOK2 (Homo sapiens, UniProt Q9UL54)
PIP4K2C = PIP4K2C (Homo sapiens, UniProt Q8TBX8)
RAF1 = RAF1 (Homo sapiens, UniProt P04049)
STK3 = STK3 (Homo sapiens, UniProt Q13188)
ACVR1B = ACVR1B (Homo sapiens, UniProt P36896)
CSNK2A1 = CSNK2A1 (Homo sapiens, UniProt P68400)
MARK1 = MARK1 (Homo sapiens, UniProt Q9P0L2)
TP53RK = TP53RK (Homo sapiens, UniProt Q96S44)
IKBKB = IKBKB (Homo sapiens, UniProt O14920)
PRKDC = PRKDC (Homo sapiens, UniProt P78527)
NEK2 = NEK2 (Homo sapiens, UniProt P51955)
TNIK = TNIK (Homo sapiens, UniProt Q9UKE5)
CAMK2A = CAMK2A (Homo sapiens, UniProt Q9UQM7)
BTK = BTK (Homo sapiens, UniProt Q06187)
LIMK1 = LIMK1 (Homo sapiens, UniProt P53667)
STK10 = STK10 (Homo sapiens, UniProt O94804)
NEK1 = NEK1 (Homo sapiens, UniProt Q96PY6)
MELK = MELK (Homo sapiens, UniProt Q14680)
DDR1 = DDR1 (Homo sapiens, UniProt Q08345)

Measured: IC50

Sequence of TNIK (Q9UKE5 whole entry): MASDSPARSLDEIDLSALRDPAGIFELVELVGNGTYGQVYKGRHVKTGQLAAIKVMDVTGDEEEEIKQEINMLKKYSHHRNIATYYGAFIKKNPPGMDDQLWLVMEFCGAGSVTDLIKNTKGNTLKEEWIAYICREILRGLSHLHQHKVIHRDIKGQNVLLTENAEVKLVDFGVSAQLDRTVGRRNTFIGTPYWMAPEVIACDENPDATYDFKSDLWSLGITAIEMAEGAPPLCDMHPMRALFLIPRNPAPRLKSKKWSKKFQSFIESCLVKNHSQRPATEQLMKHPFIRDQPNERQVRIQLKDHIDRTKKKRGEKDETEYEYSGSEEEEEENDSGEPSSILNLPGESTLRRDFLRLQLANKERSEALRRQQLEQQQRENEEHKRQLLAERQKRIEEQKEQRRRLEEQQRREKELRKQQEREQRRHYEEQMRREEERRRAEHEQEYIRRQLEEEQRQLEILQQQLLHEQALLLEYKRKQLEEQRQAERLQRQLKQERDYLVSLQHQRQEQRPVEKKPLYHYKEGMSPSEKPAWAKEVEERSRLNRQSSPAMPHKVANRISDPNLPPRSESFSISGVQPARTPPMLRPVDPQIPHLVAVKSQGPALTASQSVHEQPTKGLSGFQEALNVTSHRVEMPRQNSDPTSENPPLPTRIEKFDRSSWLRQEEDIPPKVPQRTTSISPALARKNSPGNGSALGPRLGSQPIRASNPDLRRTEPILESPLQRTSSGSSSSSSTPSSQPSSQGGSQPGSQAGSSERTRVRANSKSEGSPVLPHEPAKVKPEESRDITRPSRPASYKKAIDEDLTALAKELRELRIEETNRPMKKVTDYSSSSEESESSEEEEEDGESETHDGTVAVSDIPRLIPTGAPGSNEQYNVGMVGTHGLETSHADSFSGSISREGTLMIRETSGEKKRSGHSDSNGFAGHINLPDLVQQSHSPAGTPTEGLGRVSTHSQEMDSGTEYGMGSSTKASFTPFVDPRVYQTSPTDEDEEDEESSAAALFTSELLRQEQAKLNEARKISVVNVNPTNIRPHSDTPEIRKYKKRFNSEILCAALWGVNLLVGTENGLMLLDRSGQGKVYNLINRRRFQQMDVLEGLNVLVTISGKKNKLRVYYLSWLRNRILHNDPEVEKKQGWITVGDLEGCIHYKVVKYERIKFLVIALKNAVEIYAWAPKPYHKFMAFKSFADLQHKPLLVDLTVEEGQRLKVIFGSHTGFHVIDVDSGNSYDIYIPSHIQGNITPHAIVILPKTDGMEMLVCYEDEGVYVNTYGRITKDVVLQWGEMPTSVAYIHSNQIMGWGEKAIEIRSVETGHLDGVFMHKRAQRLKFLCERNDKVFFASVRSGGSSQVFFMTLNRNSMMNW
Sequence of TP53RK (Q96S44 whole entry): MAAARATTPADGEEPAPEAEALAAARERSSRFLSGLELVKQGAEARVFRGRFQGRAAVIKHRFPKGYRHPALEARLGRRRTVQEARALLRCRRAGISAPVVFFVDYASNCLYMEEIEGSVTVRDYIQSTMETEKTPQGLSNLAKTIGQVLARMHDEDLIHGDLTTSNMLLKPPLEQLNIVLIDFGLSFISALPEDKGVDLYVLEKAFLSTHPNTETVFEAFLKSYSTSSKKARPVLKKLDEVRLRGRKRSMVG
Sequence of TAOK2 (Q9UL54 whole entry): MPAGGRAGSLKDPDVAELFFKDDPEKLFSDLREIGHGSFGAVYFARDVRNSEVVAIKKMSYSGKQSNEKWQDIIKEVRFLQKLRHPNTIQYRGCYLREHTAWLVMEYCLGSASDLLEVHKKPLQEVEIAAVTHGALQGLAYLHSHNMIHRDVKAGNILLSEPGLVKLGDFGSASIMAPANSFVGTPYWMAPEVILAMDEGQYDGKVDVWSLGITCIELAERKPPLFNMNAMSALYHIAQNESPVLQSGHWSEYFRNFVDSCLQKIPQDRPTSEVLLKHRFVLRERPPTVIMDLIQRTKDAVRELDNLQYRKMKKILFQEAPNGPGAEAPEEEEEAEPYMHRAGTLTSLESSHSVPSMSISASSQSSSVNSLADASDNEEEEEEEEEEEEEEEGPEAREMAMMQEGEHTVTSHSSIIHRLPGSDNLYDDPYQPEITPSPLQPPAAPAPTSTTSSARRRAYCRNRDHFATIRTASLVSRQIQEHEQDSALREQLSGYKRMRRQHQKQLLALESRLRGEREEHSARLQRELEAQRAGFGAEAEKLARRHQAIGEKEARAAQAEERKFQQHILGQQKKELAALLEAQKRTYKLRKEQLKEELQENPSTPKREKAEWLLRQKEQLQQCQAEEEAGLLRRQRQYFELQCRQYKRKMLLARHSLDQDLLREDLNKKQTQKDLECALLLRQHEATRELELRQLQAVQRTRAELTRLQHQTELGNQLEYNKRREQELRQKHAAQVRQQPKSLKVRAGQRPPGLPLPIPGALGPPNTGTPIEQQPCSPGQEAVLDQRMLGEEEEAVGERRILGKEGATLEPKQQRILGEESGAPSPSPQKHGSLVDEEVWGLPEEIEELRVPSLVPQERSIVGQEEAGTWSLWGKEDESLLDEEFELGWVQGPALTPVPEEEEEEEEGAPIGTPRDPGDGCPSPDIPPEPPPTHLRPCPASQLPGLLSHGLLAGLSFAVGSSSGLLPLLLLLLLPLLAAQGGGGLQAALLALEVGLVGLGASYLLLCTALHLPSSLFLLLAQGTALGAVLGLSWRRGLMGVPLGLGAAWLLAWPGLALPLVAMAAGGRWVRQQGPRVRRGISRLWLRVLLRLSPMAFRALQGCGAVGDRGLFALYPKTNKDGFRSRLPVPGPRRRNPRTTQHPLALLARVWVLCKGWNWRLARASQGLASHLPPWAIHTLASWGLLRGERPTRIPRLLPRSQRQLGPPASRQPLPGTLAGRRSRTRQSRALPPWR
Sequence of PRKD2 (Q9BZL6 whole entry): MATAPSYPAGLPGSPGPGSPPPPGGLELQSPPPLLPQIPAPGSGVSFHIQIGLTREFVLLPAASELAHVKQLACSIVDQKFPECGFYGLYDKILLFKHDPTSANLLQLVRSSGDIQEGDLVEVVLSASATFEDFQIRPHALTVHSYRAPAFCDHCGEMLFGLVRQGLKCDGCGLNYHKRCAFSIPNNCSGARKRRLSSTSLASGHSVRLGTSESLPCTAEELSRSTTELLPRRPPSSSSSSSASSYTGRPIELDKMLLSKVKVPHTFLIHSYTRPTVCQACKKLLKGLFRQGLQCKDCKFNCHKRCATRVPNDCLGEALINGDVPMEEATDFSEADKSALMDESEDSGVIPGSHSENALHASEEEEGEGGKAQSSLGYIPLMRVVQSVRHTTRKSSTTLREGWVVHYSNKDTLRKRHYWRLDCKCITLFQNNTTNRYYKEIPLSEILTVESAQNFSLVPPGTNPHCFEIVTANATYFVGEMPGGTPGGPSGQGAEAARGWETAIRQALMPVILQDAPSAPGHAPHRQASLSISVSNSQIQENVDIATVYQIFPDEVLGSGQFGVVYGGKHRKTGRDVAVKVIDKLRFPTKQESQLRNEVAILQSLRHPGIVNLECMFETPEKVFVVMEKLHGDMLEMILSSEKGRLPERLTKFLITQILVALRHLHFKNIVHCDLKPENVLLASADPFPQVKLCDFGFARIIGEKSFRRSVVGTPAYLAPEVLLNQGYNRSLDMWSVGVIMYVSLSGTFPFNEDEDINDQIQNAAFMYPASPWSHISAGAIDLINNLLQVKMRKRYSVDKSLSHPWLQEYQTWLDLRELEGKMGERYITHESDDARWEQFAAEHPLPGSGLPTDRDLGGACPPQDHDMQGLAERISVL
Sequence of RAF1 (P04049 whole entry): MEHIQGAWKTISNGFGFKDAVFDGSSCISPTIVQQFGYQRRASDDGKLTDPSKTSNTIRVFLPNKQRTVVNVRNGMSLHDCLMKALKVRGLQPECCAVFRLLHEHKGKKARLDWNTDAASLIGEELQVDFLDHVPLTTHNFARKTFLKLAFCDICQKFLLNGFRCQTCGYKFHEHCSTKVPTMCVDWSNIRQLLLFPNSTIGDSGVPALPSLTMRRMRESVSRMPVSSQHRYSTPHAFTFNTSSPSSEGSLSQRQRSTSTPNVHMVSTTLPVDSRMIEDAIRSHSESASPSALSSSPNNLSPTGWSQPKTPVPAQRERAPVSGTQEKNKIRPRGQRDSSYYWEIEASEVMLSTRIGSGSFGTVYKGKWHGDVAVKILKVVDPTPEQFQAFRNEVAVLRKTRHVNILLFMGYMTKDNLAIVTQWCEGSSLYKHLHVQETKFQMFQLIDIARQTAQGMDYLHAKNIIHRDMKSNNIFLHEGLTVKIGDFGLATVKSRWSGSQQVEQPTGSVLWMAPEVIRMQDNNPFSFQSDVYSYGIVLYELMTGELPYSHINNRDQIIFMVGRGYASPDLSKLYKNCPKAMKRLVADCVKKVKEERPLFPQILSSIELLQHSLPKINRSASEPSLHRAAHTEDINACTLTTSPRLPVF
Sequence of CAMK2A (Q9UQM7 whole entry): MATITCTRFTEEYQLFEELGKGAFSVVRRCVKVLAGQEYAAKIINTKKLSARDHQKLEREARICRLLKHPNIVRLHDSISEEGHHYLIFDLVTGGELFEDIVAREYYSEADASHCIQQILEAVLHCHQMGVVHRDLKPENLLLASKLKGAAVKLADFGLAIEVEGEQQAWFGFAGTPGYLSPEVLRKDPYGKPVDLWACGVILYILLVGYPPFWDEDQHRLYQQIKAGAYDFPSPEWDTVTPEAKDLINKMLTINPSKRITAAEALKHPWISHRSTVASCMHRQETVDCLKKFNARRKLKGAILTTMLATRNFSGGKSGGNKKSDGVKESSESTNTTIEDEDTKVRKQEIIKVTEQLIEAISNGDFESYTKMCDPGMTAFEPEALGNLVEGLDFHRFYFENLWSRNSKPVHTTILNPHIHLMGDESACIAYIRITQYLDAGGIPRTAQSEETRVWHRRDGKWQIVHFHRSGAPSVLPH

COc1nc(N[C@H]2CC[C@H](NS(=O)(=O)CC(C)C)CC2)nc2[nH]nc(N3CCOC[C@H]3C)c12 [compound 39, N-(trans-4-((4-Methoxy-3-((R)-3-methylmorpholino)-1H-pyrazolo[3,4-d]pyrimidin-6-yl)amino)cyclohexyl)-2-methylpropane-1-sulfonamide]
≥ 20 µM: all assays above

Source: publication PMC6407917, “Identification of GSK3186899/DDD853651 as a Preclinical Development Candidate for the Treatment of Visceral Leishmaniasis” (Journal of Medicinal Chemistry, 2018)
